Laboratory results taken from patent US20230265151A1, “GIP/GLP1 CO-AGONIST COMPOUNDS” (priority 2020, published 2023).
Where two headings read alike, the source gives them in different places.

Columns and labels:
Assay type in all cases: cell-based
hGIPR = biological target: T1, hGIPR (Homo sapiens, UniProt P48546); test: Functional cAMP formation (HTRF) in HEK-293 clonal cells expressing hGIPR, 0.1% bovine casein, without or with 1.0% human serum albumin; settings: 37° C.; for Emax: HEK293, cAMP, percent of maximal response to GIP(1-42)NH2, read-out: hGIPR Emax, % ± SEM; for EC50: cAMP, 0.1% bovine casein (no human serum albumin), geometric mean, read-out: hGIPR EC50, nM (SEM, n)
T1 construct: expressed in transfected cells
T1 sequence (P48546 22-466): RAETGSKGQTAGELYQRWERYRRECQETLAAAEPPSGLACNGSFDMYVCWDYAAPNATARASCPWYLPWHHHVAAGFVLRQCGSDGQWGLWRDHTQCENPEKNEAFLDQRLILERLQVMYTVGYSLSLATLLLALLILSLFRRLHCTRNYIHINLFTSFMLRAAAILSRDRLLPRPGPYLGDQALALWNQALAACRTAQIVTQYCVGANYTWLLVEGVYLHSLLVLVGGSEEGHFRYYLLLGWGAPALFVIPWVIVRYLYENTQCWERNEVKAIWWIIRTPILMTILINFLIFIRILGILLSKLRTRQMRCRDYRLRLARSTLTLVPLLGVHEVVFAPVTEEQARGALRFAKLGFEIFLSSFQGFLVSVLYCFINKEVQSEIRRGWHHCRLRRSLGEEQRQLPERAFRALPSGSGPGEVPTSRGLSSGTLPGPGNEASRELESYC
Method in brief: (§1)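 Cells were stimulated with peptide for 30 min at 37° C, then intracellular cAMP was measured by competitive HTRF (665/620 nm ratio) and converted to nM using a cAMP standard curve. Relative EC50 and Emax came from four-parameter logistic fits of percent maximal response against peptide concentration.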

hGCGR = biological target: T2, hGCGR (Homo sapiens, UniProt P47871); test: Functional cAMP formation (HTRF) in HEK-293 clonal cells expressing hGCGR, 0.1% bovine casein, without or with 1.0% human serum albumin; settings: cAMP, 37° C., read-out: hGCGR EC50, nM (SEM, n)
T2 construct: expressed in transfected cells
Method in brief: as §1

hGLP-1R = hGLP-1R (Homo sapiens, UniProt P43220); test: Functional cAMP formation (HTRF) in HEK-293 clonal cells expressing hGLP-1R, 0.1% bovine casein, without or with 1.0% human serum albumin; parameters: expressed in transfected cells; settings: 37° C.; for EC50: cAMP, read-out: hGLP-1R EC50, nM (SEM, n); for Emax: HEK293, cAMP, percent of maximal response to GLP-1(7-36)NH2, read-out: hGLP-1R Emax, % ± SEM
Method in brief: as §1

[1] = 0.1% bovine casein and 1.0% human serum albumin
[2] = 0.1% bovine casein (no human serum albumin), geometric mean
[3] = 0.1% bovine casein and 1.0% human serum albumin, geometric mean (SEM, n)
[4] = 0.1% bovine casein, arithmetic mean

Sequence of hGLP-1R (P43220 24-463): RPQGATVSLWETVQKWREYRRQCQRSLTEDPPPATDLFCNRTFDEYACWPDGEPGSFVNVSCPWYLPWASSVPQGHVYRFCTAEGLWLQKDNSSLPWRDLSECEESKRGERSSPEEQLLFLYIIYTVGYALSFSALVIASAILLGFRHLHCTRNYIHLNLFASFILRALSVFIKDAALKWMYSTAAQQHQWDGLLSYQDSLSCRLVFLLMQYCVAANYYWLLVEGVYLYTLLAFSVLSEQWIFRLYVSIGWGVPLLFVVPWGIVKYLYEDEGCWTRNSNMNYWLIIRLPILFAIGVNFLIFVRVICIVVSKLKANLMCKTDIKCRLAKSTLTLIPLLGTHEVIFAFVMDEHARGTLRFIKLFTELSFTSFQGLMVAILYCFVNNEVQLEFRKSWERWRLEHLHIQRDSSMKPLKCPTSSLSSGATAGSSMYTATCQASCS
T2 sequence (P47871 26-477): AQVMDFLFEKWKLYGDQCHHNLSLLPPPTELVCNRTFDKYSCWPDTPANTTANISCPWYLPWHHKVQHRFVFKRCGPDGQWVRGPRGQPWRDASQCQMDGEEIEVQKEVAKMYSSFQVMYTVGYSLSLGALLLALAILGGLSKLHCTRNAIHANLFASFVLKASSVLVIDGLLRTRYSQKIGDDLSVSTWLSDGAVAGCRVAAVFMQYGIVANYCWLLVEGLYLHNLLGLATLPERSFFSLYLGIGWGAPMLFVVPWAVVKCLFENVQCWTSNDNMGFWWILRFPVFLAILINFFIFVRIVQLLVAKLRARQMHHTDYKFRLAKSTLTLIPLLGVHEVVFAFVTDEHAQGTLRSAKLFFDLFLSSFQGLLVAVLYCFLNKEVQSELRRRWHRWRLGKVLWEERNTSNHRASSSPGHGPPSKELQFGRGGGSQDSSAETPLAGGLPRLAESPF

| Structure (SMILES) | Emax (hGIPR; [1]) [%] | EC50 (hGIPR) [nM] | EC50 (hGCGR; [2]) [nM] | EC50 (hGCGR; [3]) [nM] | EC50 (hGLP-1R; [2]) [nM] | EC50 (hGLP-1R; [3]) [nM] | Emax (hGIPR; [4]) [%] | Emax (hGLP-1R; [1]) [%] | Emax (hGLP-1R; [4]) [%] |
| --- | --- | --- | --- | --- | --- | --- | --- | --- | --- |
| CC[C@H](C)[C@H](NC(=O)[C@H](CCCN)NC(=O)[C@H](CC(=O)O)NC(=O)[C@H](CC(C)C)NC(=O)[C@](C)(CC(C)C)NC(=O)[C@@H](NC(=O)C(C)(C)NC(=O)[C@H](Cc1ccc(O)cc1)NC(=O)[C@H](CC(=O)O)NC(=O)[C@H](CO)NC(=O)[C@@H](NC(=O)[C@](C)(Cc1ccccc1F)NC(=O)[C@@H](NC(=O)CNC(=O)[C@H](CCC(=O)O)NC(=O)C(C)(C)NC(=O)[C@@H](N)Cc1ccc(O)cc1)[C@@H](C)O)[C@@H](C)O)[C@@H](C)CC)C(=O)N[C@@H](C)C(=O)N[C@@H](CCC(N)=O)C(=O)NC(C)(C)C(=O)N[C@@H](CCC(=O)O)C(=O)N[C@@H](Cc1ccccc1)C(=O)N[C@H](C(=O)N[C@@H](CCCCNC(=O)COCCOCCNC(=O)CC[C@H](NC(=O)COCCOCCNC(=O)COCCOCCNC(=O)CCCCCCCCCCCCC(=O)O)C(=O)O)C(=O)N[C@@](C)(Cc1ccc(O)cc1)C(=O)N[C@@H](CC(C)C)C(=O)N[C@H](C(=O)N[C@@H](CCCCNC(=O)COCCOCCNC(=O)CC[C@H](NC(=O)COCCOCCNC(=O)COCCOCCNC(=O)CCCCCCCCCCCCC(=O)O)C(=O)O)C(=O)NCC(=O)NCC(=O)N1CCC[C@H]1C(=O)N[C@@H](CO)C(=O)N[C@@H](CO)C(=O)NCC(=O)N[C@@H](C)C(=O)N1CCC[C@H]1C(=O)N1CCC[C@H]1C(=O)N1CCC[C@H]1C(=O)N[C@@H](CO)C(N)=O)[C@@H](C)CC)[C@@H](C)CC [Example 364] | 89.1 | 0.0111 | > 9950 | > 9950 | 0.347 | 13 |  |  |  |
| CC[C@H](C)[C@H](NC(=O)[C@H](CCCN)NC(=O)[C@H](CC(=O)O)NC(=O)[C@H](CC(C)C)NC(=O)[C@](C)(CC(C)C)NC(=O)[C@@H](NC(=O)C(C)(C)NC(=O)[C@H](Cc1ccc(O)cc1)NC(=O)[C@H](CC(=O)O)NC(=O)[C@H](CO)NC(=O)[C@@H](NC(=O)[C@](C)(Cc1ccccc1F)NC(=O)[C@@H](NC(=O)CNC(=O)[C@H](CCC(=O)O)NC(=O)C(C)(C)NC(=O)[C@@H](N)Cc1ccc(O)cc1)[C@@H](C)O)[C@@H](C)O)[C@@H](C)CC)C(=O)N[C@@H](C)C(=O)N[C@@H](CCC(N)=O)C(=O)NC(C)(C)C(=O)N[C@@H](CCC(=O)O)C(=O)N[C@@H](Cc1ccccc1)C(=O)N[C@H](C(=O)N[C@@H](CCCCNC(=O)COCCOCCNC(=O)CC[C@H](NC(=O)COCCOCCNC(=O)CCCCCCCCCCCCC(=O)O)C(=O)O)C(=O)N[C@@](C)(Cc1ccc(O)cc1)C(=O)N[C@@H](CC(C)C)C(=O)N[C@H](C(=O)N[C@@H](CCCCNC(=O)COCCOCCNC(=O)CC[C@H](NC(=O)COCCOCCNC(=O)CCCCCCCCCCCCC(=O)O)C(=O)O)C(=O)NCC(=O)NCC(=O)N1CCC[C@H]1C(=O)N[C@@H](CO)C(=O)N[C@@H](CO)C(=O)NCC(=O)N[C@@H](C)C(=O)N1CCC[C@H]1C(=O)N1CCC[C@H]1C(=O)N1CCC[C@H]1C(=O)N[C@@H](CO)C(N)=O)[C@@H](C)CC)[C@@H](C)CC [Example 365] | 93.5 | 0.00809 | > 9950 | > 9950 | 0.362 |  | 105 | 91 | 98.5 |
| CC[C@H](C)[C@H](NC(=O)[C@H](CC(C)C)NC(=O)[C@](C)(Cc1ccc(O)cc1)NC(=O)[C@@H](CCC(=O)O)NC(=O)[C@@H](NC(=O)[C@H](Cc1ccccc1)NC(=O)[C@H](CCCCNC(=O)COCCOCCNC(=O)CC[C@H](NC(=O)CCCCCCCCCCCCC(=O)O)C(=O)O)NC(=O)C(C)(C)NC(=O)[C@H](CCC(N)=O)NC(=O)[C@H](C)NC(=O)[C@H](CCCCNC(=O)COCCOCCNC(=O)CC[C@H](NC(=O)CCCCCCCCCCCCC(=O)O)C(=O)O)NC(=O)[C@H](CCCN)NC(=O)[C@H](CC(=O)O)NC(=O)[C@H](CC(C)C)NC(=O)[C@](C)(CC(C)C)NC(=O)[C@@H](NC(=O)C(C)(C)NC(=O)[C@H](Cc1ccc(O)cc1)NC(=O)[C@H](CC(=O)O)NC(=O)[C@H](CO)NC(=O)[C@@H](NC(=O)[C@](C)(Cc1ccccc1F)NC(=O)[C@@H](NC(=O)CNC(=O)[C@H](CCC(=O)O)NC(=O)C(C)(C)NC(=O)[C@@H](N)Cc1ccc(O)cc1)[C@@H](C)O)[C@@H](C)O)[C@@H](C)CC)[C@@H](C)CC)C(=O)N[C@@H](CCC(=O)O)C(=O)NCC(=O)NCC(=O)N1CCC[C@H]1C(=O)N[C@@H](CO)C(=O)N[C@@H](CO)C(=O)NCC(=O)N[C@@H](C)C(=O)N1CCC[C@H]1C(=O)N1CCC[C@H]1C(=O)N1CCC[C@H]1C(=O)N[C@@H](CO)C(N)=O [Example 366] | 95.9 | 0.0162 | > 9950 | > 9950 | 0.279 |  |  | 98.3 | 89.6 |
| CC[C@H](C)[C@H](NC(=O)[C@H](CC(C)C)NC(=O)[C@](C)(Cc1ccc(O)cc1)NC(=O)[C@@H](CCC(=O)O)NC(=O)[C@@H](NC(=O)[C@H](Cc1ccccc1)NC(=O)[C@H](CCC(=O)O)NC(=O)C(C)(C)NC(=O)[C@H](CCC(N)=O)NC(=O)[C@H](C)NC(=O)[C@H](CCCCNC(=O)COCCOCCNC(=O)CC[C@H](NC(=O)CCCCCCCCCCCCC(=O)O)C(=O)O)NC(=O)[C@H](CCCN)NC(=O)[C@H](CC(=O)O)NC(=O)[C@H](CC(C)C)NC(=O)[C@](C)(CC(C)C)NC(=O)[C@@H](NC(=O)C(C)(C)NC(=O)[C@H](Cc1ccc(O)cc1)NC(=O)[C@H](CC(=O)O)NC(=O)[C@H](CO)NC(=O)[C@@H](NC(=O)[C@](C)(Cc1ccccc1F)NC(=O)[C@@H](NC(=O)CNC(=O)[C@H](CCC(=O)O)NC(=O)C(C)(C)NC(=O)[C@@H](N)Cc1ccc(O)cc1)[C@@H](C)O)[C@@H](C)O)[C@@H](C)CC)[C@@H](C)CC)C(=O)N[C@@H](CCCCNC(=O)COCCOCCNC(=O)CC[C@H](NC(=O)CCCCCCCCCCCCC(=O)O)C(=O)O)C(=O)NCC(=O)NCC(=O)N1CCC[C@H]1C(=O)N[C@@H](CO)C(=O)N[C@@H](CO)C(=O)NCC(=O)N[C@@H](C)C(=O)N1CCC[C@H]1C(=O)N1CCC[C@H]1C(=O)N1CCC[C@H]1C(=O)N[C@@H](CO)C(N)=O [Example 367] |  | 0.019 | > 9950 |  | 0.366 |  | 112 |  | 93.9 |
| CC[C@H](C)[C@H](NC(=O)[C@H](CC(C)C)NC(=O)[C@](C)(Cc1ccc(O)cc1)NC(=O)[C@@H](CCC(=O)O)NC(=O)[C@@H](NC(=O)[C@H](Cc1ccccc1)NC(=O)[C@H](CCC(=O)O)NC(=O)C(C)(C)NC(=O)[C@H](CCC(N)=O)NC(=O)[C@H](C)NC(=O)[C@H](CCCCNC(=O)COCCOCCNC(=O)CC[C@H](NC(=O)CCCCCCCCCCCCC(=O)O)C(=O)O)NC(=O)[C@H](CCCN)NC(=O)[C@H](CC(=O)O)NC(=O)[C@H](CC(C)C)NC(=O)[C@](C)(CC(C)C)NC(=O)[C@@H](NC(=O)C(C)(C)NC(=O)[C@H](Cc1ccc(O)cc1)NC(=O)[C@H](CC(=O)O)NC(=O)[C@H](CO)NC(=O)[C@@H](NC(=O)[C@](C)(Cc1ccccc1F)NC(=O)[C@@H](NC(=O)CNC(=O)[C@H](CCC(=O)O)NC(=O)C(C)(C)NC(=O)[C@@H](N)Cc1ccc(O)cc1)[C@@H](C)O)[C@@H](C)O)[C@@H](C)CC)[C@@H](C)CC)C(=O)N[C@@H](CCC(=O)O)C(=O)NCC(=O)NCC(=O)N1CCC[C@H]1C(=O)N[C@@H](CO)C(=O)N[C@@H](CO)C(=O)NCC(=O)N[C@@H](C)C(=O)N1CCC[C@H]1C(=O)N1CCC[C@H]1C(=O)N1CCC[C@H]1C(=O)N[C@@H](CO)C(=O)N[C@@H](CCCCNC(=O)COCCOCCNC(=O)CC[C@H](NC(=O)CCCCCCCCCCCCC(=O)O)C(=O)O)C(N)=O [Example 368] |  | 0.0271 | > 9950 |  | 0.411 |  | 105 |  |  |
